According to patent US8247211B2, “Glycopeptide antibiotics” (American Cyanamid Company, priority 2001, dated 2012):
Converted amounts (≈) assume the structure as drawn. Each block holds one compound with its values, some of them ahead of it.

Columns and labels:
Test in all cases: In vitro antibacterial evaluation: minimum inhibitory concentration (MIC), broth dilution method
Type in all cases: cell-based
Enterococcus sp. = settings: broth dilution, 18 hours at 35° C.
Outline: (§1)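 MIC read as lowest drug level preventing visible growth. Organisms at 5×10^5 CFU/mL were exposed to a 64-0.06 μg/mL dilution series in Muller-Hinton II […] following NCCLS broth dilution standard M7-A2.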

Streptococcus sp. = settings: broth dilution, 18 hours at 35° C.
Outline: as §1

Staphylococcus sp. = settings: broth dilution, 18 hours at 35° C.; for MIC Staphylococcus aureus-SMITH (GC 4543): strain SMITH GC 4543
Outline: as §1

Escherichia coli = settings: broth dilution, 18 hours at 35° C.
[1] = Enterococcus faecalis (ATCC 29212)
[2] = Enterococcus faecalis (GC 2242)
[3] = Enterococcus faecalis (GC 2691)
[4] = Enterococcus faecalis (GC 3059)
[5] = Enterococcus faecalis (GC 4552)
[6] = Enterococcus faecalis (GC 4553)
[7] = Enterococcus faecalis (GC 4554)
[8] = Enterococcus faecalis (GC 6189)
[9] = Streptococcus agalactiae (GC 4564)
[10] = Streptococcus pneumoniae (ATCC 6301)
[11] = Streptococcus pneumoniae (GC 1894)
[12] = Streptococcus pneumoniae (GC 4565)
[13] = Streptococcus pyogenes (GC 4563)

- MIC Enterococcus avium (GC 4558) (Enterococcus sp.; Enterococcus avium (GC 4558)): 8 µg/mL (≈ 6.81 µM)
- MIC Enterococcus faecalis (ATCC 29212) (Enterococcus sp.; [1]): 16 µg/mL (≈ 13.6 µM)
- MIC Enterococcus faecalis (GC 2242) (Enterococcus sp.; [2]): 16 µg/mL (≈ 13.6 µM)
- MIC Enterococcus faecalis (GC 2691) (Enterococcus sp.; [3]): 16 µg/mL (≈ 13.6 µM)
- MIC Enterococcus faecalis (GC 3059) (Enterococcus sp.; [4]): 16 µg/mL (≈ 13.6 µM)
- MIC Enterococcus faecalis (GC 4552) (Enterococcus sp.; [5]): 16 µg/mL (≈ 13.6 µM)
- MIC Enterococcus faecalis (GC 4553) (Enterococcus sp.; [6]): 8 µg/mL (≈ 6.81 µM)
- MIC Enterococcus faecalis (GC 4554) (Enterococcus sp.; [7]): 32 µg/mL (≈ 27.3 µM)
- MIC Enterococcus faecalis (GC 6189) (Enterococcus sp.; [8]): 16 µg/mL (≈ 13.6 µM)
- MIC Enterococcus faecium (GC 2243) (Enterococcus sp.; Enterococcus faecium (GC 2243)): 8 µg/mL (≈ 6.81 µM)
- MIC Enterococcus faecium (GC 4556) (Enterococcus sp.; Enterococcus faecium (GC 4556)): 32 µg/mL (≈ 27.3 µM)
- MIC Enterococcus faecium (GC 4557) (Enterococcus sp.; Enterococcus faecium (GC 4557)): 8 µg/mL (≈ 6.81 µM)
- MIC Enterococcus avium (GC 4558) (Enterococcus sp.): 8 µg/mL (≈ 6.81 µM)
- MIC Enterococcus faecalis (ATCC 29212) (Enterococcus sp.): 16 µg/mL (≈ 13.6 µM)
- MIC Enterococcus faecalis (GC 2242) (Enterococcus sp.): 16 µg/mL (≈ 13.6 µM)
- MIC Enterococcus faecalis (GC 2691) (Enterococcus sp.): 16 µg/mL (≈ 13.6 µM)
- MIC Enterococcus faecalis (GC 3059) (Enterococcus sp.): 16 µg/mL (≈ 13.6 µM)
- MIC Enterococcus faecalis (GC 4552) (Enterococcus sp.): 16 µg/mL (≈ 13.6 µM)
- MIC Enterococcus faecalis (GC 4553) (Enterococcus sp.): 8 µg/mL (≈ 6.81 µM)
- MIC Enterococcus faecalis (GC 4554) (Enterococcus sp.): 32 µg/mL (≈ 27.3 µM)
- MIC Enterococcus faecalis (GC 6189) (Enterococcus sp.): 16 µg/mL (≈ 13.6 µM)
- MIC Enterococcus faecium (GC 2243) (Enterococcus sp.): 8 µg/mL (≈ 6.81 µM)
- MIC Enterococcus faecium (GC 4556) (Enterococcus sp.): 32 µg/mL (≈ 27.3 µM)
- MIC Enterococcus faecium (GC 4557) (Enterococcus sp.): 8 µg/mL (≈ 6.81 µM)
- MIC Streptococcus agalactiae (GC 4564) (Streptococcus sp.; [9]): 16 µg/mL (≈ 13.6 µM)
- MIC Streptococcus pneumoniae (ATCC 6301) (Streptococcus sp.; [10]): 8 µg/mL (≈ 6.81 µM)
- MIC Streptococcus pneumoniae (GC 1894) (Streptococcus sp.; [11]): 8 µg/mL (≈ 6.81 µM)
- MIC Streptococcus pneumoniae (GC 4565) (Streptococcus sp.; [12]): 16 µg/mL (≈ 13.6 µM)
- MIC Streptococcus pyogenes (GC 4563) (Streptococcus sp.; [13]): 4 µg/mL (≈ 3.41 µM)
- MIC Streptococcus agalactiae (GC 4564) (Streptococcus sp.): 16 µg/mL (≈ 13.6 µM)
- MIC Streptococcus pneumoniae (ATCC 6301) (Streptococcus sp.): 8 µg/mL (≈ 6.81 µM)
- MIC Streptococcus pneumoniae (GC 1894) (Streptococcus sp.): 8 µg/mL (≈ 6.81 µM)
- MIC Streptococcus pneumoniae (GC 4565) (Streptococcus sp.): 16 µg/mL (≈ 13.6 µM)
- MIC Streptococcus pyogenes (GC 4563) (Streptococcus sp.): 4 µg/mL (≈ 3.41 µM)
- MIC Coagulase Negative Staphylococcus (GC 4547) (Staphylococcus sp.): 8 µg/mL (≈ 6.81 µM)
- MIC Coagulase Negative Staphylococcus (GC 4548) (Staphylococcus sp.): 8 µg/mL (≈ 6.81 µM)
- MIC Coagulase Negative Staphylococcus (GC 4549) (Staphylococcus sp.): 4 µg/mL (≈ 3.41 µM)
- MIC Coagulase Negative Staphylococcus (GC 4551) (Staphylococcus sp.): 8 µg/mL (≈ 6.81 µM)
- MIC Coagulase Negative Staphylococcus (GC 6257) (Staphylococcus sp.): 4 µg/mL (≈ 3.41 µM)
- MIC Staphylococcus aureus SMITH (GC 4543) (Staphylococcus sp.): 16 µg/mL (≈ 13.6 µM)
- MIC Staphylococcus aureus-SMITH (GC 4543) (Staphylococcus sp.): 16 µg/mL (≈ 13.6 µM)
- MIC Escherichia coli (GC 4560) (Escherichia coli): 16 µg/mL (≈ 13.6 µM)
Structure (SMILES): CC(c1ccccc1)C1NC(=O)CNC(=O)C(CO)NC(=O)C(C(O)C2CNC(=N)N2C2OC(CO)C(O)C(O)C2O)NC(=O)C(C(O)C2CNC(=N)N2)NC(=O)C(Cc2ccc3oc(C=C(c4ccccc4)c4ccccc4)nc3c2)NC1=O (stereo not drawn) [Example 39, Cyclo[3-[2-(2,2-diphenylethenyl)-1,3-benzoxazol-5-yl]alanyl-3-(2-iminoimidazolidin-4-yl)seryl-3-(3-hexopyranosyl-2-iminoimidazolidin-4-yl)serylserylglycyl-β-methylphenylalanyl]]
- MIC Staphylococcus haemolyticus (GC 4546) (Staphylococcus sp.): 8 µg/mL (≈ 6.81 µM)

- MIC Enterococcus avium (GC 4558) (Enterococcus sp.; Enterococcus avium (GC 4558)): 4 µg/mL (≈ 3.55 µM)
- MIC Enterococcus faecalis (ATCC 29212) (Enterococcus sp.; [1]): 8 µg/mL (≈ 7.09 µM)
- MIC Enterococcus faecalis (GC 2242) (Enterococcus sp.; [2]): 8 µg/mL (≈ 7.09 µM)
- MIC Enterococcus faecalis (GC 2691) (Enterococcus sp.; [3]): 8 µg/mL (≈ 7.09 µM)
- MIC Enterococcus faecalis (GC 3059) (Enterococcus sp.; [4]): 16 µg/mL (≈ 14.2 µM)
- MIC Enterococcus faecalis (GC 4552) (Enterococcus sp.; [5]): 8 µg/mL (≈ 7.09 µM)
- MIC Enterococcus faecalis (GC 4553) (Enterococcus sp.; [6]): 8 µg/mL (≈ 7.09 µM)
- MIC Enterococcus faecalis (GC 4554) (Enterococcus sp.; [7]): 8 µg/mL (≈ 7.09 µM)
- MIC Enterococcus faecalis (GC 6189) (Enterococcus sp.; [8]): 8 µg/mL (≈ 7.09 µM)
- MIC Enterococcus faecium (GC 2243) (Enterococcus sp.; Enterococcus faecium (GC 2243)): 4 µg/mL (≈ 3.55 µM)
- MIC Enterococcus faecium (GC 4556) (Enterococcus sp.; Enterococcus faecium (GC 4556)): 16 µg/mL (≈ 14.2 µM)
- MIC Enterococcus faecium (GC 4557) (Enterococcus sp.; Enterococcus faecium (GC 4557)): 2 µg/mL (≈ 1.77 µM)
- MIC Enterococcus avium (GC 4558) (Enterococcus sp.): 4 µg/mL (≈ 3.55 µM)
- MIC Enterococcus faecalis (ATCC 29212) (Enterococcus sp.): 8 µg/mL (≈ 7.09 µM)
- MIC Enterococcus faecalis (GC 2242) (Enterococcus sp.): 8 µg/mL (≈ 7.09 µM)
- MIC Enterococcus faecalis (GC 2691) (Enterococcus sp.): 8 µg/mL (≈ 7.09 µM)
- MIC Enterococcus faecalis (GC 3059) (Enterococcus sp.): 16 µg/mL (≈ 14.2 µM)
- MIC Enterococcus faecalis (GC 4552) (Enterococcus sp.): 8 µg/mL (≈ 7.09 µM)
- MIC Enterococcus faecalis (GC 4553) (Enterococcus sp.): 8 µg/mL (≈ 7.09 µM)
- MIC Enterococcus faecalis (GC 4554) (Enterococcus sp.): 8 µg/mL (≈ 7.09 µM)
- MIC Enterococcus faecalis (GC 6189) (Enterococcus sp.): 8 µg/mL (≈ 7.09 µM)
- MIC Enterococcus faecium (GC 2243) (Enterococcus sp.): 4 µg/mL (≈ 3.55 µM)
- MIC Enterococcus faecium (GC 4556) (Enterococcus sp.): 16 µg/mL (≈ 14.2 µM)
- MIC Enterococcus faecium (GC 4557) (Enterococcus sp.): 2 µg/mL (≈ 1.77 µM)
- MIC Streptococcus agalactiae (GC 4564) (Streptococcus sp.; [9]): 8 µg/mL (≈ 7.09 µM)
- MIC Streptococcus pneumoniae (ATCC 6301) (Streptococcus sp.; [10]): 8 µg/mL (≈ 7.09 µM)
- MIC Streptococcus pneumoniae (GC 1894) (Streptococcus sp.; [11]): 16 µg/mL (≈ 14.2 µM)
- MIC Streptococcus pneumoniae (GC 4565) (Streptococcus sp.; [12]): 16 µg/mL (≈ 14.2 µM)
- MIC Streptococcus pyogenes (GC 4563) (Streptococcus sp.; [13]): 4 µg/mL (≈ 3.55 µM)
- MIC Streptococcus agalactiae (GC 4564) (Streptococcus sp.): 8 µg/mL (≈ 7.09 µM)
- MIC Streptococcus pneumoniae (ATCC 6301) (Streptococcus sp.): 8 µg/mL (≈ 7.09 µM)
- MIC Streptococcus pneumoniae (GC 1894) (Streptococcus sp.): 16 µg/mL (≈ 14.2 µM)
- MIC Streptococcus pneumoniae (GC 4565) (Streptococcus sp.): 16 µg/mL (≈ 14.2 µM)
- MIC Streptococcus pyogenes (GC 4563) (Streptococcus sp.): 4 µg/mL (≈ 3.55 µM)
- MIC Coagulase Negative Staphylococcus (GC 4547) (Staphylococcus sp.): 2 µg/mL (≈ 1.77 µM)
- MIC Coagulase Negative Staphylococcus (GC 4548) (Staphylococcus sp.): 1 µg/mL (≈ 0.886 µM)
- MIC Coagulase Negative Staphylococcus (GC 4549) (Staphylococcus sp.): 1 µg/mL (≈ 0.886 µM)
- MIC Coagulase Negative Staphylococcus (GC 4551) (Staphylococcus sp.): 4 µg/mL (≈ 3.55 µM)
- MIC Coagulase Negative Staphylococcus (GC 6257) (Staphylococcus sp.): 1 µg/mL (≈ 0.886 µM)
- MIC Staphylococcus aureus SMITH (GC 4543) (Staphylococcus sp.): 2 µg/mL (≈ 1.77 µM)
- MIC Staphylococcus aureus-SMITH (GC 4543) (Staphylococcus sp.): 2 µg/mL (≈ 1.77 µM)
- MIC Escherichia coli (ATCC 25922) (Escherichia coli): 32 µg/mL (≈ 28.4 µM)
- MIC Escherichia coli (GC 4559) (Escherichia coli): 32 µg/mL (≈ 28.4 µM)
- MIC Escherichia coli (GC 4560) (Escherichia coli): 1 µg/mL (≈ 0.886 µM)
Structure (SMILES): CC(c1ccccc1)C1NC(=O)CNC(=O)C(CO)NC(=O)C(CC2CNC(=N)N2C2OC(CO)C(O)C(O)C2O)NC(=O)C(CC2CNC(=N)N2)NC(=O)C(Cc2ccc3oc(-c4ccc5c(c4)Cc4ccccc4-5)nc3c2)NC1=O (stereo not drawn) [Example 42, Cyclo[3-[2-(9H-fluoren-2-yl)-1,3-benzoxazol-5-yl]alanyl-3-(2-iminoimidazolidin-4-yl)alanyl-3-(3-hexopyranosyl-2-iminoimidazolidin-4-yl)alanylserylglycyl-β-methylphenylalanyl]]
- MIC Staphylococcus haemolyticus (GC 4546) (Staphylococcus sp.): 2 µg/mL (≈ 1.77 µM)
